Results taken from US11046954B2, “Targeted protein degradation to attenuate adoptive T-cell therapy associated adverse inflammatory responses” (Dana-Farber Cancer Institute, Inc., priority 2015, dated 2021).
Entries after “also recorded” stand apart in the source; their conditions may differ.

Assays:
[1] = system: NIH3T3 expressing FKBP* fused to the N-terminus of KRASG12V; assay: Phase contrast imaging of NIH3T3 cells expressing FKBP*-KRASG12V; format: cell-based; settings: NIH3T3 expressing dTAG-KRAS; dFKBP13, 24 hours; vs DMSO
Protocol: FIG. 23A, FIG. 23B, FIG. 23C, and FIG. 23D are panels of phase contrast images of control NIH3T3 cells or NIH3T3 expressing FKBP* fused to the N-terminus of KRASG12V treated with DMSO or dFKBP13 for 24 hours.

CD19-CAR-dTAG = target: T1, CD19-CAR-dTAG (Homo sapiens, UniProt P62942+Q96SW2, F37V/H95N/M50V/V99I); assay: Immunoblot of Jurkat T-cells expressing CD19-CAR-dTAG; format: cell-based; settings: for degradation of CD19-CAR-dTAG, time dependence: 250 nM, indicated time; for degradation of CD19-CAR-dTAG, dose dependence: indicated dose, 4 hours
T1 construct: HA; expressed in transfected cells; host or cells: Jurkat T-cells (lentiviral transduction, blasticidin selection)
T1 sequence (P62942 with tags, fused parts or gaps F37V/M50V/H95N/V99I limits assumed): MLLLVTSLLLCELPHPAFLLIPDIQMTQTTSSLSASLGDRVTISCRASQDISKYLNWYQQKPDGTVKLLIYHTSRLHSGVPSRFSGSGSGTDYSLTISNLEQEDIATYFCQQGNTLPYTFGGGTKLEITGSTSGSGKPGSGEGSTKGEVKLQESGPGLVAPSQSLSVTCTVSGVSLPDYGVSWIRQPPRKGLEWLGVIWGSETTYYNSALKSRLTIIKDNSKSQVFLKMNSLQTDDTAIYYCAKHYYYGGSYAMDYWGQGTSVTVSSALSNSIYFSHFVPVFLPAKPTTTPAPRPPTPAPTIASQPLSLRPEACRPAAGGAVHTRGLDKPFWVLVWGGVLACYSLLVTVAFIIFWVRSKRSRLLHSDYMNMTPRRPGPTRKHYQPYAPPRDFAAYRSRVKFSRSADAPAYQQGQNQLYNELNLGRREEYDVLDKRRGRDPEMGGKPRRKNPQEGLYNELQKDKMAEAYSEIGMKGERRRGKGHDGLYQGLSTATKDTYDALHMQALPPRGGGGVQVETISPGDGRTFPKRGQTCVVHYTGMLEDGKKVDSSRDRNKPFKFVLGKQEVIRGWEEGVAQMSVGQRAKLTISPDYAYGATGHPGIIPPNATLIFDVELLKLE
T1 sequence (Q96SW2 whole entry): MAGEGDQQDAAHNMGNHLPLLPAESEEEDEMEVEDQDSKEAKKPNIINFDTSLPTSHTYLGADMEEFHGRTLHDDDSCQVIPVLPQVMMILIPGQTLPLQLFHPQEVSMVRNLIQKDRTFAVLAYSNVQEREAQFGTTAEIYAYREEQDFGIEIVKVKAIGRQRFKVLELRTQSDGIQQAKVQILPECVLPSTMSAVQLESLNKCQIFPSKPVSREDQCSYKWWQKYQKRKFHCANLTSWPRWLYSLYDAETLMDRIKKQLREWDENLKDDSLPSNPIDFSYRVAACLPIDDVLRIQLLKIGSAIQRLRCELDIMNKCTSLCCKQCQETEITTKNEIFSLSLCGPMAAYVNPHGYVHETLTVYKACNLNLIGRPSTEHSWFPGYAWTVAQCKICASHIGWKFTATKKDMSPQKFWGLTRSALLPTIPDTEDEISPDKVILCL
T1 sequence (Q16531 whole entry partner): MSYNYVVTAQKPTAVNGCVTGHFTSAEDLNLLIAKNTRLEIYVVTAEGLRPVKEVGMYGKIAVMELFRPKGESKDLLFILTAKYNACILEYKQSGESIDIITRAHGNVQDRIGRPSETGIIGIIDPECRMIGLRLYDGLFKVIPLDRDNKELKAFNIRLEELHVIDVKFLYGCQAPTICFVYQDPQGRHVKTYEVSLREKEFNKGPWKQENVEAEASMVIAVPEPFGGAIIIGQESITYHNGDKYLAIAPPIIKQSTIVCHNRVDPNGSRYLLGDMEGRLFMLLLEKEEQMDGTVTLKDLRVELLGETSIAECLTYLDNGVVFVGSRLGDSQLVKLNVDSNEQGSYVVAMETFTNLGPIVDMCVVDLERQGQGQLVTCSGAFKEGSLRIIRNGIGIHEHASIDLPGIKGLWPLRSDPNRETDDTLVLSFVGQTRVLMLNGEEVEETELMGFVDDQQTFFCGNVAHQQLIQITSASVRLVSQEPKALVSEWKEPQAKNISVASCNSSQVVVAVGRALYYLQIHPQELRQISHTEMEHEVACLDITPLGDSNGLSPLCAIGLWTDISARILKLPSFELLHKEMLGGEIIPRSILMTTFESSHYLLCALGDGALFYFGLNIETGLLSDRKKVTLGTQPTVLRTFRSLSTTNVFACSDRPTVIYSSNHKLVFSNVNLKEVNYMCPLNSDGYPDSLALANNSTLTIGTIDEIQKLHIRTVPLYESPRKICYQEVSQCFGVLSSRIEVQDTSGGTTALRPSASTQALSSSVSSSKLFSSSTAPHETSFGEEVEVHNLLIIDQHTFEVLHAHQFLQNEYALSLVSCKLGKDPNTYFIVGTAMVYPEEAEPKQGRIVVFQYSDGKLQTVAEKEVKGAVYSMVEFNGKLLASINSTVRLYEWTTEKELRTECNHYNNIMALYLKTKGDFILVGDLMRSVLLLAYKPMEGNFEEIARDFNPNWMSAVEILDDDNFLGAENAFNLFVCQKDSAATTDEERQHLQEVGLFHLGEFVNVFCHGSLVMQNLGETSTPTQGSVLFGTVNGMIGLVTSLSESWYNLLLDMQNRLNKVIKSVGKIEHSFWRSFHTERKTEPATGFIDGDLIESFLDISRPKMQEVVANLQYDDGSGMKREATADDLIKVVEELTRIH
Protocol: Jurkat T-cells were transduced with lentivirus expressing CD19-CAR-dTAG. Cells were selected with blasticidin and expanded. Stable expression of CD19-CAR-dTAG was confirmed.
Jurkat T-cells expressing CD19-CAR-dTAG were treated with the indicated dose of dFKBP7 or dFKBP13 for 4 hours.
FIG. 15A and FIG. 15B are immunoblots of cells treated with bi-functional molecules described in the present invention. Jurkat T-cells expressing CD19-CAR-dTAG were treated with 250 nM of dFKBP7 or dFKBP13 for the indicated time.
Jurkat T-cells expressing CD19-CAR-dTAG were treated with 250 nM of dFKBP7 for 4 hours. The dFKBP7 was then removed from the Jurkat cells via washouts and the re-expression of CD19-CAR-dTAG was monitored by immunoblot analysis at the indicated time points.
(§1) FIG. 17A illustrates the experimental design to measure the ability to control the expression CD19-CAR-dTAG in T-cells upon addition and removal of dFKBP7. Jurkat cells expressing CD19-CAR-dTAG were treated with 250 nM of dFKBP7 at the indicated time points (0 and 8 hours). At 4 and 12 hours, the dFKBP7 was washed out of the Jurkat cells. At each indicated timepoint, Jurkat cells were harvest to monitor CD19-CAR-dTAG expression levels via immunoblot analysis. FIG. 17B is the resulting immunoblot from the experimental design in FIG. 17A.
Jurkat T-cells were transduced with lentivirus expressing CD19-CAR-dTAG. Cells were selected with blasticidin and expanded. Stable expression of CD19-CAR-dTAG in Jurkat cells was confirmed by anti-HA western immunoblotting of whole cell lysates.
In an effort to define the optimal concentration of bifunctional molecules to induce degradation of CD19-CAR-dTAG, degradation was measured upon treatment with increasing concentrations of dFKBP7 and dFKBP13. Jurkat T-cells were engineered to express CD19-CAR-dTAG. Cells were treated with the indicated dose of dFKBP7 or dFKBP13 for 4 hours before lysates were prepared for western immunoblot analysis.
To evaluate the kinetic control of targeted degradation of CD19-CAR-dTAG, a fixed concentration of bi-functional molecules dFKBP7 and dFKBP13 were administered at a fixed concentration for increased duration. Jurkat T-cells were engineered to express CD19-CAR-dTAG. Cells were treated with 250 nM dFKBP7 or dFKBP13 for the indicated time before lysates were prepared for immunoblot analysis.
Immunoblot illustrating the kinetics of re-expression of the CD19-CAR-dTAG protein following targeting degradation with dFKBP7. Jurkat T-cells engineered to express CD19-CAR-dTAG were treated with 250 nM of dFKBP7 for 4 hours. The dFKBP7 was then removed from the Jurkat cells via washouts and the re-expression of CD19-CAR-dTAG was monitored by immunoblot analysis at the indicated time points.
as §1, with “engineered to express” for “expressing”, “analysis.” for “analysis. FIG. 17B is the resulting immunoblot from the experimental design in FIG. 17A.”
FIG. 17B is an immunoblot illustrating the ability to toggle on and off expression of CD19-CAR-dTAG as described in FIG. 17A.

[2] = system: indicated proteins fused to mutant FKBP*; assay: Immunoblot of MV4;11 leukemia cells expressing proteins fused to mutant FKBP* with an HA tag; settings: 16 hours, indicated concentrations
Excerpt: Immunoblots of MV4; 11 leukemia cells expressing indicated proteins fused to mutant FKBP* with an HA tag.
To test the general utility of the dTAG technology across several protein types, the indicated proteins fused to the dTAG in MV4; 11 leukemia cells were expressed.

FKBP* = target: T2, FKBP* (Homo sapiens, UniProt P62942, F37V); assay: Immunoblot of 293FT cells (CRBN-WT) expressing FKBP*, pretreated with Carfilzomib, MLN4924 or Lenalidomide before dFKBP13; format: cell-based
T2 construct: HA; expressed in transfected cells; host or cells: 293FT cells (CRBN-WT or CRBN-/-)
T2 sequence (P62942 whole entry F37V): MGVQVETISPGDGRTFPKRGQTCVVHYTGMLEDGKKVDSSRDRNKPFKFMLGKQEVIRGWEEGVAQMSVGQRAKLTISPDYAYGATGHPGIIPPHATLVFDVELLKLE
Protocol: (§2) 293FT cells (CRBN-WT) expressing FKBP* were pretreated with luM Carfilzomib (proteasome inhibitor), 0.5 uM MLN4924 (neddylation inhibitor), and 10 uM Lenalidomide (CRBN binding ligand) for two hours prior to a 4 hour treatment with dFKBP13.
as §2, with “were engineered to express FKBP*. Cells” for “expressing FKBP*”, “dFKBP13. Lysates were prepared and western immunoblot analysis performed.” for “dFKBP13.”

FKBP* fused to Nluc = target: T3, FKBP* fused to Nluc (Homo sapiens, UniProt P62942+Q96SW2, F37V); assay: Nluc/Fluc luciferase signal ratio assay of FKBP* degradation in 293FT cells; format: cell-based; settings: wild type or CRBN −/− 293FT; indicated concentrations, 4 hours
T3 construct: Nluc (nano luciferase, fusion partner); expressed in transfected cells; host or cells: 293FT cells (wild type or CRBN-/-)
T3 sequence (P62942 2-108 F37V): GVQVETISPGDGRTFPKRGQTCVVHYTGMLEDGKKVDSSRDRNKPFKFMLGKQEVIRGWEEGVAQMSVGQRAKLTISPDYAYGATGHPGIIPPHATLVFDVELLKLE
T3 sequence (Q96SW2 whole entry, the tested form may be a part): as the sequence (Q96SW2 whole entry) above
T3 sequence (Q16531 whole entry partner, the tested form may be a part): as the sequence (Q16531 whole entry partner) above
Protocol: FIG. 7A and FIG. 7B are graphs measuring the activity of a panel of dFKBP heterobifunctional compounds in cells expressing FKBP* fused to Nluc. Degradation of FKBP* is measured as a signal ratio (Nluc/Fluc) between NANOluc and firefly luciferase from the same multicistronic transcript in wild type (FIG. 7A) or CRBN −/− (FIG. 7B) 293FT cells treated with indicated concentrations of dFKBPs for 4 hours. A decrease in the signal ratio indicates FKBP* (Nluc) degradation.
In an effort to identify potent and selective dFKPB heterobifunctional compounds, high throughput measurements of targeted FKBP* degradation were measured by surrogate levels of luciferase. Here, FKBP* is exogenously expressed as a multicistronic transcript with two types of luciferase: nano luciferase (NLuc) and firefly luciferase (FLuc) that allow for cell normalized quantification of FKBP* protein levels. Degradation of FKBP* is measured as a signal ration (Nluc/Fluc) in wild type (FIG. 7A) or CRBN −/−(FIG. 7B) 293FT cells treated with indicated concentrations of dFKBPs for 4 hours.

SMILES: CC[C@H](C(=O)N1CCCC[C@H]1C(=O)O[C@H](CCc1ccc(OC)c(OC)c1)c1cccc(OCC(=O)NCCCCCCOc2cccc3c2C(=O)N(C2CCC(=O)NC2=O)C3=O)c1)c1cc(OC)c(OC)c(OC)c1 (stereo partly shown) [dFKBP13]
- morphological change of cells [1]: cells morphologically revert back to the wild type (DMSO control) state; also recorded: morphological change induced
- degradation of CD19-CAR-dTAG, time dependence (CD19-CAR-dTAG; Jurkat T-cells): time-dependent degradation
- degradation of CD19-CAR-dTAG, dose dependence (CD19-CAR-dTAG; Jurkat T-cells): dose-dependent degradation
- degradation of proteins fused to dTAG (FKBP*) [2]: degradation was observed with nanomolar concentrations
- degradation of HA-tagged FKBP* by dFKBP13 after MLN4924 pretreatment (FKBP*; 0.5 uM MLN4924 (neddylation inhibitor) two hours prior to 4 hour dFKBP13): rescued HA-tagged FKBP*
- degradation of HA-tagged FKBP* by dFKBP13 after Carfilzomib pretreatment (FKBP*; 1 uM Carfilzomib (proteasome inhibitor) two hours prior to 4 hour dFKBP13): rescued by the proteasome inhibitor Carfilzomib
- degradation of FKBP* by dFKBP13 after Lenalidomide pretreatment (FKBP*; 10 uM Lenalidomide (CRBN binding ligand) two hours prior to 4 hour dFKBP13): abolished dFKBP13-dependent FKBP* degradation

SMILES: CC[C@H](C(=O)N1CCCC[C@H]1C(=O)O[C@H](CCc1ccc(OC)c(OC)c1)c1cccc(OCC(=O)NCCCOCCOCCOCCCNC(=O)COc2cccc3c2C(=O)N(C2CCC(=O)NC2=O)C3=O)c1)c1cc(OC)c(OC)c(OC)c1 (stereo partly shown) [dFKBP7]
- FKBP* (Nluc) degradation, signal ratio (Nluc/Fluc) (FKBP* fused to Nluc): effectively degrade FKBP* in a cereblon dependent manner
- re-expression of CD19-CAR-dTAG after washout (CD19-CAR-dTAG; Jurkat T-cells, 250 nM dFKBP7 4 hours, then removed via washouts): protein levels recovered following removal
- degradation of CD19-CAR-dTAG, time dependence (CD19-CAR-dTAG; Jurkat T-cells): time-dependent degradation
- degradation of CD19-CAR-dTAG, dose dependence (CD19-CAR-dTAG; Jurkat T-cells): dose-dependent degradation
- rheostat chemical control of CD19-CAR-dTAG expression (CD19-CAR-dTAG; Jurkat cells, 250 nM dFKBP7 at 0 and 8 hours, washed out at 4 and 12 hours): allows for exquisite chemical control of CD19-CAR-dTAG protein levels allowing for modulation within hours
- degradation of proteins fused to dTAG (FKBP*) [2]: degradation was observed with nanomolar concentrations
